Test results reported in publication PMC4379526 (2015).

Test system: OTA aptabeacon (DNA, aptamer) CGCGCTGGATCGGGTGTGGGTGGCGTAAAGGGAGCATCGGACACAGCGCG
Assay: molecular beacon fluorescence, real-time PCR cycler
Conditions: 120 mM NaCl, 5 mM KCl, 20 mM CaCl2, 10 mM Tris pH 8.5, 30 °C

SMILES | Kd (1 µM aptabeacon, calculated from Kd = [A][L]/[AL]) | binding (2 µM toxin, peak area 67–88% lower than OTA)
C[C@@H]1Cc2c(Cl)cc(C(=O)N[C@@H](Cc3ccccc3)C(=O)O)c(O)c2C(=O)O1 | 0.8 µM | –
C[C@@H]1Cc2ccc(C(=O)N[C@@H](Cc3ccccc3)C(=O)O)c(O)c2C(=O)O1 | – | weak
